The results in this text go back to patent US20250295796A1, “CELL PENETRATING POLYPEPTIDES (CPPS) AND THEIR USE IN HUMAN THERAPY” (RDP PHARMA AG, priority 2021, published 2025).

In general, IC50 refers to the point on the concentration scale where inhibition reaches its midpoint.

For experiment [1], the system named is HCT116 human colon carcinoma xenograft with null p53 (HCT116 p53−/−). As to the kind of experiment: HCT116 p53-/- xenograft, single agent and combination with cisplatin or vincristine. Format: in vivo, female athymic nude mice. The note with it: for % TGD (tumor growth delay) / time to study endpoint (TTE): endpoint tumor volume of 1000 mm^3, CROMOC36 as single agent or in combination; for time to study endpoint (TTE): control Day 23; for tumor growth inhibition: single-agent reference, q7dx5 (CDDP 4 mg/kg, VCR 2 mg/kg). The protocol: A study was conducted to evaluate the efficacy and tolerability of CROMOC36 against an HCT116 human colon carcinoma xenograft model with null p53 (HCT116 p53−/−) in female athymic nude mice. CROMOC36 was administered subcutaneously (s.c.) three times at intervals of two weeks (q14dx3) as a single agent or in combination with cisplatin (CDDP) at 4 mg/kg or vincristine (VCR) at 2 mg/kg which were both administered five times at intervals of one week (q7dx5). CROMOC36 was tested at 32 mg/kg or using a decreasing dosage of 32-16-16 mg/kg. CDDP and VCR were also administered as single agents to allow comparison of the efficacy of CROMOC36 with commonly used anticancer drugs. The dose and schedule of CDDP and VCR treatments remained the same when tested as single agents or in combination with CROMOC36. […] Efficacy was also evaluated by measuring the tumor growth delay (TGD) and the number of regression responses.

The subject of experiment [2] is murine Lewis lung carcinoma. As to the kind of experiment: Lewis lung carcinoma (LLC) model, primary tumor growth and metastasis. The protocol:
The efficacy of CROMOC36 on the Lewis lung carcinoma (LLC) model, was selected for testing the activity of CROMOC36 against primary tumor growth and metastasis formation. CROMOC36 was tested as a single agent and in combination with Cyclophosphamide (CYPP). In addition, single-agent CYPP was used as a reference compound, allowing comparison of the efficacy of CROMOC36 with a commonly used antitumor agent (summarized in FIG. 9).

For experiment [3], the system named is IMR32 human neuroblastoma xenograft. As to the kind of experiment: IMR32 human neuroblastoma xenograft model. Type of experiment: in vivo, mice. The note with it: single agent, q14dx2; CROMOC36 32 mg/Kg s.c.; doxorubicin 8 mg/kg i.v. The text has this: FIG. 11: IMR32 s.c. implanted. Treatment on xenograft mice with advanced tumors (volume >50 mm^3). Variation in tumor volume expressed as percentage with respect to initial volume (day 0; designated as 100%). Final measurements for vehicle (PBS) and Doxorubicin groups were taken on day 42. For the remaining groups, final measurements were taken on day 63, the termination day of the experiment. Growth reduction compared to controls on day 42 (p<0.01).
The aim of this study was to assess the in vivo efficacy of CROMOC36 on a IMR32 human neuroblastoma xenograft model. CROMOC36 was administered subcutaneously (s.c.) at intervals of two weeks (q14dx2) at two different doses (32 mg/Kg) and also in combination with doxorubicin administered intravenously (i.v.) (32/kg CROMOC36+4+4 mg/Kg doxorubicin, s.c and i.v., q14dx2). Doxorubicin was also used alone as a reference compound (8 mg/kg, i.v., q14dx2). Vehicle was PBS.
On the technique in general: Xenograft models place foreign cells or tissue in a host animal.

Experiment [4] deals with M5076 ovarian reticulum sarcoma tumor cell line. As to the kind of experiment: M5076 artificial hepatic metastasis model, i.v. route. The note with it: CROMOC36 16 mg/kg i.v. q7dx3; Doxorubicin 6 mg/kg q4dx3 (MTD).
In a further experiment the test system is LIXF 575L. The experiment is described as follows: Monolayer assay, 96h treatment, LIXF 575L. Type of experiment: cell-based, human. To be noted: Homo sapiens. On the procedure: (§1) Monolayer Assay Propidium Iodid (PI). Cells were harvested from exponential phase cultures, counted and depending on the cell line 3.000 to 20.000 cells were plated in 96-well flat-bottom microtiter plates After a 24 h recovery period to allow cells to resume exponential growth, 10 μl of culture medium (four control wells/plate) or culture medium with the test compound were added by a liquid handling robotic system and treatment continued for four days. Compounds were applied in half-log increments at 10 concentrations in duplicate. Three independent experiments were performed. Cells were then washed with 200 μl PBS to remove dead cells followed by addition of 200 μl of a solution containing 7 μg/ml propidium iodide (PI) and 0.1% (v/v) Triton X-100. After an incubation period of 1-2 h at room temperature, fluorescence (FU) was measured using the Cytofluor 4000 microplate reader (excitation λ=530 nm, emission λ=620 nm) to quantify the amount of attached viable cells. Concentrations required for 50% inhibition of cell growth (IC50) were calculated by non-linear regression (log[conc. of inhibitor]versus response (% T/C)) using the analysis software GraphPad Prism®, Prism 5 for windows, version 5.01 (GraphPad Software Inc., CA).
(§2) CROMOC36—in vitro activity Human hepatocellular carcinoma cell lines IC50 values of CROMOC36 and Sorafenib, 96h treatment. […]

The subject of another experiment is HEP3B. As to the kind of experiment: Monolayer assay, 96h treatment, HEP3B. Type of experiment: cell-based, human. To be noted: Homo sapiens. The protocol:
as §1, §2

The subject of a further experiment is HEPG2. As to the kind of experiment: Monolayer assay, 96h treatment, HEPG2. Format: cell-based, human. To be noted: Homo sapiens; HEPG2, 96h treatment. The protocol: as §1, §2
Experiment [5] deals with Human hepatocellular carcinoma cell lines. The experiment is described as follows: Monolayer assay, human hepatocellular carcinoma cell lines, 96h treatment (geomean of three lines). Type of experiment: cell-based. The note with it: Homo sapiens; three HCC cell lines, 96h treatment. The protocol: as §1
CROMOC36—in vitro activity Human hepatocellular carcinoma cell lines IC50 values of CROMOC36 and Sorafenib, 96h treatment. […] The individual results for CROMOC36 are included in FIG. 24. […] The individual results for Sorafenib are included in (FIG. 24).

The test system of experiment [6] is human pancreatic tumor cell lines. The experiment is described as follows: Propidium iodide based monolayer proliferation assay, panel of 13 human pancreatic tumor cell lines. To be noted: Homo sapiens, 96 h; 13 pancreatic cell lines, four days treatment; read-out: geomean IC50. On the procedure: as §1
CROMOC36—in vitro activity Human pancreatic carcinoma cell lines. The aim of this study was to investigate the antitumor activity of CROMOC36 in vitro on a panel of 13 human pancreatic tumor cell lines. Antitumor activity was assessed after four days of CROMOC36 treatment using a propidium iodide based monolayer proliferation assay. Up to four experiments were performed in each cell line, testing CROMOC36 at ten concentrations in half-log increments up to 1 μM. Taxol, an antitumor agent commonly used for the treatment of pancreatic cancer, was used as a reference compound and tested in half-log steps up to 0.3 μM.

A further experiment has as its system Osteosarcoma (U2OS) cell. The experiment is described as follows: Monolayer Sulphorhodamine B (SRB) staining assay, 72 hours, preCROMOC-DDM fusion molecules. Type of experiment: cell-based, human. To be noted: CPP fused to preCROMOC. The protocol:
Cells were harvested from exponential phase cultures, and depending on the cell line 10.000 to 30.000 cells were plated in 96-well flat-bottom microtiter plates. After a 24 h recovery period to allow cells to resume exponential growth, supernatant was discarded and 100 μl of culture medium (eight control wells/plate) or culture medium with the test compound were added by a liquid handling robotic system (Microlab® Starlet, Hamilton) and treatment continued for 72 hrs. Compounds were applied at 9 concentrations eight wells/concentration). At least three independent experiments were performed. For SRB staining, cells were fixed with SRB01 for 1h at 4° C. (final concentration of TCA=10%) washed with a plate washer (Hydroflex, Tecan©) for five times with H2O; and stained with 100 μl of SRB02 at room temperature for 10 min following 4 washes in SRB03 and finally 100 μl of developer solution SRB04 for 5 minutes with shaking. Optical density was assessed using a plate-reader (Sunrise, Tecan©) at 540 nm. Concentrations required for 50% inhibition of cell growth (IC50) were calculated by non-linear regression (log[conc. of inhibitor] versus response (% T/C)) using the analysis software GraphPad Prism®, Prism 5 for windows, version 5.01 (GraphPad Software Inc., CA). (SRB Buffers FIG. 25).
Background: Sulforhodamine B stains cellular protein and so reports cell mass.

Experiment [7] relates to human colon carcinoma with null p53 (HCT116 p53−/−) xenograft. The experiment is described as follows: HCT116 p53-/- xenograft, CROMOC36 versus nuclease impaired CROMOC60. Format: in vivo, mouse. To be noted: s.c. 4 mg/kg on days 0, 1, 2, 3, 6, 7, 8, 9, 10, 20, 22, 24. On the procedure: FIG. 7: HCT116 p53−/− human colon carcinoma xenograft. Treatment on advanced tumors (volume >50 mm^3). Dose: CROMOC36 4 mg/kg; CROMOC60 4 mg/kg. Treatment: s.c. administration on day 0, 1, 2, 3, 6, 7, 8, 9, 10, 20, 22, 24.
A study was conducted to test the antitumor efficacy of CROMOC36 on an advanced human colon carcinoma with null p53 (HCT116 p53−/−) xenograft model and compare it to a vehicle or a nuclease impaired version CROMOC60 treatment group. CROMOC60 is no more catalytically active as a nuclease but is able to be transported to the nucleus of a cell. This study was also designed to proof that the active principle of the tumor growth inhibiting activity of CROMOC is the nuclease activity in vivo. CROMOC36 and CROMOC60 were both administered subcutaneously (s.c.) at 4 mg/kg dose on the days 0, 1, 2, 3, 6, 7, 8, 9, 10, 20, 22, 24. […] This also proofs that CROMOC36 can serve as a valid DNA DSB reagent.

Regarding `[NH2][Pt]([NH2])([Cl])[Cl]` [CDDP, cisplatin, reference compound], in experiment [1], the “% TGD (tumor growth delay)” value turned out to be 48%, the “time to study endpoint (TTE)” value turned out to be 34 days and the tumor growth inhibition turned out to be 47.2%.
With `O=P1(N(CCCl)CCCl)NCCCO1` (centres unmarked) [CYPP, Cyclophosphamide, reference compound], in [2] (CYPP single agent, 180 mg/kg), the “inhibition of number of metastases” value came to 62%. The “tumor growth inhibition (TI), primary tumor” value in experiment [2] (single agent, CROMOC36 s.c. q2dx5) was 78.6%.
Regarding `COc1cccc2c1C(=O)c1c(O)c3c(c(O)c1C2=O)C[C@@](O)(C(=O)CO)C[C@@H]3O[C@H]1C[C@H](N)[C@H](O)[C@H](C)O1` [Doxorubicin, reference compound], the “tumor growth inhibition (TGI) compared to controls” value in experiment [3] turned out to be 10%. The “% ILS (mean survival time versus control group)” value in [4] worked out at 32%.
For `CNC(=O)c1cc(Oc2ccc(NC(=O)Nc3ccc(Cl)c(C(F)(F)F)c3)cc2)ccn1` [Sorafenib, reference compound], the half-maximal inhibitory concentration (IC50) with LIXF 575L stood at 6.07 µM; in the experiment on HEP3B, 2.83 µM; in the experiment on HEPG2, 5.97 µM; in experiment [5], 4.68 µM.
Turning to `CC(=O)O[C@H]1C(=O)[C@@]2(C)[C@H]([C@H](OC(=O)c3ccccc3)[C@]3(O)C[C@H](OC(=O)[C@H](O)[C@@H](NC(=O)c4ccccc4)c4ccccc4)C(C)=C1C3(C)C)[C@]1(OC(C)=O)CO[C@@H]1C[C@@H]2O` [Taxol, reference compound], the IC50 in experiment [6] is 0.00199 µM.
In the case of `CC[C@]1(O)C[C@H]2CN(CCc3c([nH]c4ccccc34)[C@@](C(=O)OC)(c3cc4c(cc3OC)N(C=O)[C@H]3[C@@](O)(C(=O)OC)[C@H](OC(C)=O)[C@]5(CC)C=CCN6CC[C@]43[C@@H]65)C2)C1` [VCR, vincristine, reference compound], in experiment [1], the “% TGD (tumor growth delay)” value is recorded as 52%, the “time to study endpoint (TTE)” value came out at 35 days and the tumor growth inhibition was 45.4%.
“GNSGSGKKKKKGKGSGLGSGKKKDPLGSGLGSGKKKKKGKGSGLGSGKKKDPLGST (peptide, DDM36)”: the “activity in the SRB assay compared with TAT, Pentratin, and Transportan” value with Osteosarcoma (U2OS) cell was “orders of magnitude higher activity”.

B1: CROMOC60: nuclease impaired version; no more catalytically active as a nuclease but able to be transported to the nucleus (protein)
chain: MSHPDLNKLLELWPHIQEYQDLALKHGINDIFQDNGGKLLQVLLITGLTVLPGREGNDAVDNAGQEYELKSINIDLTAGFSTHHHMNPVIIAKYRQVPWIFAIYRGIAIEAIYRLEPKDLEFYYDKWERKWYSDGHKDINNPKIPVKYVMEHGTKIYGSGGSGGSSHPDLNKLLELWPHIQEYQDLALKHGINDIFQDNGGKLLQVLLITGLTVLPGREGNDAVDNAGQEYELKSINIDLTAGFSTHHHMNPVIIAKYRQVPWIFAIYRGIAIEAIYRLEPKDLEFYYDKWERKWYSDGHKDINNPKIPVKYVMEHGTKIYGNSGSGKKKKKGKGSGLGSGKKKDPLGSGLGSGKKKKKGKGSGLGSGKKKDPLGST
modifications: peptide, CROMOC60
For B1, the “progression of HCT116 p53−/− human colon carcinoma as compared to vehicle control” value in experiment [7] is given as “not”.
